Assay results published in PubChem BioAssay AID1963450 (Molecular Pharmacology Branch, DTP, NCI, 2024).
Values joined by “and” are separate entries in the source; they are usually repeats but may differ in a detail not shown here. Equal values may be shown once.

System: 556581-035-R-J1-PDC complex spheroid growth
Experiment: Anticancer human tumor 556581-035-R-J1-PDC patient-derived ovarian carcinoma cell line growth inhibition [Asc]
Conditions: for viability, T/C: stronger effect = lower value
Method in brief: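 Complex solid-tumor spheroids incorporating human endothelial and mesenchymal stem cells received single agents or combinations over half-log dilution ranges anchored to clinical Cmax.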

[1] = curve of first compound, second compound 0.1 µM
[2] = curve of first compound, second compound 0.316 µM
[3] = curve of first compound, second compound 1 µM
[4] = second compound 0.1 µM, first compound 0.00316 µM
[5] = second compound 0.1 µM, first compound 0.01 µM
[6] = second compound 0.1 µM, first compound 0.0316 µM
[7] = second compound 0.1 µM, first compound 0.1 µM
[8] = second compound 0.1 µM, first compound 0.316 µM
[9] = second compound 0.1 µM, first compound 1 µM
[10] = second compound 0.316 µM, first compound 0.00316 µM
[11] = second compound 0.316 µM, first compound 0.01 µM
[12] = second compound 0.316 µM, first compound 0.0316 µM
[13] = second compound 0.316 µM, first compound 0.1 µM
[14] = second compound 0.316 µM, first compound 0.316 µM
[15] = second compound 0.316 µM, first compound 1 µM
[16] = second compound 1 µM, first compound 0.00316 µM
[17] = second compound 1 µM, first compound 0.01 µM
[18] = second compound 1 µM, first compound 0.0316 µM
[19] = second compound 1 µM, first compound 0.1 µM
[20] = second compound 1 µM, first compound 0.316 µM
[21] = second compound 1 µM, first compound 1 µM
[22] = curve of first compound, second compound 0.01 µM
[23] = curve of first compound, second compound 0.0316 µM
[24] = second compound 0.01 µM, first compound 0.0316 µM
[25] = second compound 0.01 µM, first compound 0.1 µM
[26] = second compound 0.0316 µM, first compound 0.0316 µM
[27] = second compound 0.0316 µM, first compound 0.1 µM
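Also: spheroids exposed to agents for 7 days before viability read.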

O=C(c1cc(Cc2n[nH]c(=O)c3ccccc23)ccc1F)N1CCN(C(=O)C2CC2)CC1
viability, T/C (compound 0.0316 µM): 102% and 112% and 91.3%
viability, T/C (compound 0.1 µM): 107% and 101% and 99.2%
viability, T/C (compound 0.316 µM): 106% (2×) and 60%
viability, T/C (compound 1 µM): 95.7% and 85.4% and 88.8%
viability, T/C (compound 3.16 µM): 106% and 98.3% and 72.7%
viability, T/C (compound 10 µM): 81.1% and 83.3% and 78.6%
IC50 (curve of compound): > 10000 nM

Cc1c(S(C)(=O)=O)c(-c2cc(F)cc(N3CCN(c4ccc(NS(=O)(=O)c5ccc(NC(CCN6CCC(C(=O)OCCCP(=O)(O)O)CC6)CSc6ccccc6)c(S(=O)(=O)C(F)(F)F)c5)cc4)CC3)c2)c(-c2ccc(Cl)cc2)n1C(C)C (centres undefined)
viability, T/C (compound 0.1 µM): 80.6% [middle of 14 runs]
viability, T/C (compound 0.316 µM): 73.5% [middle of 14 runs]
viability, T/C (compound 1 µM): 66.1% [middle of 14 runs]
viability, T/C (compound 3.16 µM): 66.3% [middle of 14 runs]
viability, T/C (compound 10 µM): 61.9% [middle of 14 runs]
IC50 (compound alone, run of 10/11/2022): > 10000 nM

C=CC(=O)N1CCN(c2nc(=O)n(-c3c(C)ccnc3C(C)C)c3nc(-c4c(O)cccc4F)c(F)cc23)C(C)C1 (centres undefined)
viability, T/C (compound 0.0316 µM): 111% and 113% and 95.5%
viability, T/C (compound 0.1 µM): 88.9% and 109% and 106%
viability, T/C (compound 0.316 µM): 104% and 110% and 108%
viability, T/C (compound 1 µM): 83.5% and 88.5% and 109%
viability, T/C (compound 3.16 µM): 99% and 99.9% and 109%
viability, T/C (compound 10 µM): 111% and 76.8% and 107%
IC50 (curve of compound): > 10000 nM

O=C(c1ccc(F)c(F)c1Nc1ccc(I)cc1F)N1CC(O)([C@@H]2CCCCN2)C1
viability, T/C (compound 0.00316 µM): 108% and 79.6% and 89.6%
viability, T/C (compound 0.01 µM): 109% and 97.5% and 101%
viability, T/C (compound 0.0316 µM): 59.3% and 70.2% and 121%
viability, T/C (compound 0.1 µM): 63.9% and 59.8% and 92%
viability, T/C (compound 0.316 µM): 50.6% and 37.8% and 42%
viability, T/C (compound 1 µM): 7.45% and 10.7% and 14%
IC50 (curve of compound): 171 nM and 164 nM and 263 nM

COc1c(OCCCN2CCOCC2)ccc2c3n(c(=NC(=O)c4cnc(N)nc4)nc12)CCN3 + Cc1c(S(C)(=O)=O)c(-c2cc(F)cc(N3CCN(c4ccc(NS(=O)(=O)c5ccc(NC(CCN6CCC(C(=O)OCCCP(=O)(O)O)CC6)CSc6ccccc6)c(S(=O)(=O)C(F)(F)F)c5)cc4)CC3)c2)c(-c2ccc(Cl)cc2)n1C(C)C
IC50 [1]: 46.9 nM
IC50 [2]: 28.4 nM
IC50 [3]: 18.9 nM
IC50 (curve of first compound, second compound 3.16 µM): 10.5 nM
IC50 (curve of first compound, second compound 10 µM): 3.16 nM
viability, T/C [4]: 71%
viability, T/C [5]: 67.5%
viability, T/C [6]: 42.1%
viability, T/C [7]: 51.2%
viability, T/C [8]: 29.9%
viability, T/C [9]: 10.1%
viability, T/C [10]: 75.6%
viability, T/C [11]: 56.6%
viability, T/C [12]: 44.4%
viability, T/C [13]: 47.9%
viability, T/C [14]: 16.4%
viability, T/C [15]: 10.5%
viability, T/C [16]: 57.9%
viability, T/C [17]: 61.3%
viability, T/C [18]: 41.5%
viability, T/C [19]: 27.7%
viability, T/C [20]: 14.2%
viability, T/C [21]: 9.33%
viability, T/C (second compound 3.16 µM, first compound 0.00316 µM): 59%
viability, T/C (second compound 3.16 µM, first compound 0.01 µM): 50.5%
viability, T/C (second compound 3.16 µM, first compound 0.0316 µM): 41.7%
viability, T/C (second compound 3.16 µM, first compound 0.1 µM): 29%
viability, T/C (second compound 3.16 µM, first compound 0.316 µM): 23.9%
viability, T/C (second compound 3.16 µM, first compound 1 µM): 9.13%
viability, T/C (second compound 10 µM, first compound 0.00316 µM): 48.7%
viability, T/C (second compound 10 µM, first compound 0.01 µM): 57.3%
viability, T/C (second compound 10 µM, first compound 0.0316 µM): 34%
viability, T/C (second compound 10 µM, first compound 0.1 µM): 53.7%
viability, T/C (second compound 10 µM, first compound 0.316 µM): 11.1%
viability, T/C (second compound 10 µM, first compound 1 µM): 19.6%

O=C(c1cc(Cc2n[nH]c(=O)c3ccccc23)ccc1F)N1CCN(C(=O)C2CC2)CC1 + CNC(C)C(=O)NC1CN(S(=O)(=O)c2cccc(S(=O)(=O)N3CCC4CCC(C(=O)NC(c5ccccc5)c5ccccc5)N4C(=O)C(NC(=O)C(C)NC)C3)c2)CCC2CCC(C(=O)NC(c3ccccc3)c3ccccc3)N2C1=O
IC50 [22]: > 10000 nM
IC50 [23]: > 10000 nM
IC50 [1]: > 10000 nM
IC50 [2]: > 10000 nM
IC50 [3]: 10000 nM
viability, T/C [24]: 83.4%
viability, T/C [25]: 74.5%
viability, T/C (second compound 0.01 µM, first compound 0.316 µM): 88.2%
viability, T/C (second compound 0.01 µM, first compound 1 µM): 93.8%
viability, T/C (second compound 0.01 µM, first compound 3.16 µM): 52.8%
viability, T/C (second compound 0.01 µM, first compound 10 µM): 56.8%
viability, T/C [26]: 89.3%
viability, T/C [27]: 88.7%
viability, T/C (second compound 0.0316 µM, first compound 0.316 µM): 87.3%
viability, T/C (second compound 0.0316 µM, first compound 1 µM): 88.8%
viability, T/C (second compound 0.0316 µM, first compound 3.16 µM): 55.3%
viability, T/C (second compound 0.0316 µM, first compound 10 µM): 73.1%
viability, T/C [6]: 84.4%
viability, T/C [7]: 67%
viability, T/C [8]: 67.2%
viability, T/C [9]: 61.5%
viability, T/C (second compound 0.1 µM, first compound 3.16 µM): 49.1%
viability, T/C (second compound 0.1 µM, first compound 10 µM): 61.2%
viability, T/C [12]: 88%
viability, T/C [13]: 76.3%
viability, T/C [14]: 86%
viability, T/C [15]: 76%
viability, T/C (second compound 0.316 µM, first compound 3.16 µM): 50%
viability, T/C (second compound 0.316 µM, first compound 10 µM): 63.2%
viability, T/C [18]: 76.8%
viability, T/C [19]: 84.1%
viability, T/C [20]: 73.8%
viability, T/C [21]: 88%
viability, T/C (second compound 1 µM, first compound 3.16 µM): 45.7%
viability, T/C (second compound 1 µM, first compound 10 µM): 61.2%

NC1CCC(NC2CC2c2ccccc2)CC1 (centres undefined)
viability, T/C (compound 0.000316 µM): 86.2% and 89% and 93.9%
viability, T/C (compound 0.001 µM): 88.5% and 105% and 92.8%
viability, T/C (compound 0.00316 µM): 92.3% and 95.4% and 89.9%
viability, T/C (compound 0.01 µM): 89.6% and 94.8% and 95.2%
viability, T/C (compound 0.0316 µM): 94.2% and 84.8% and 111%
viability, T/C (compound 0.1 µM): 87.9% and 97.2% and 85%
IC50 (curve of compound): > 100 nM

NC1CCC(NC2CC2c2ccccc2)CC1 (centres undefined) + CNC(C)C(=O)NC1CN(S(=O)(=O)c2cccc(S(=O)(=O)N3CCC4CCC(C(=O)NC(c5ccccc5)c5ccccc5)N4C(=O)C(NC(=O)C(C)NC)C3)c2)CCC2CCC(C(=O)NC(c3ccccc3)c3ccccc3)N2C1=O
IC50 [22]: > 100 nM
IC50 [23]: > 100 nM
IC50 [1]: > 100 nM
IC50 [2]: > 100 nM
IC50 [3]: > 100 nM
viability, T/C (second compound 0.01 µM, first compound 0.000316 µM): 90.1%
viability, T/C (second compound 0.01 µM, first compound 0.001 µM): 93.5%
viability, T/C (second compound 0.01 µM, first compound 0.00316 µM): 86.5%
viability, T/C (second compound 0.01 µM, first compound 0.01 µM): 92.9%
viability, T/C [24]: 95.8%
viability, T/C [25]: 86.8%
viability, T/C (second compound 0.0316 µM, first compound 0.000316 µM): 86.3%
viability, T/C (second compound 0.0316 µM, first compound 0.001 µM): 83.8%
viability, T/C (second compound 0.0316 µM, first compound 0.00316 µM): 87.4%
viability, T/C (second compound 0.0316 µM, first compound 0.01 µM): 72%
viability, T/C [26]: 80.2%
viability, T/C [27]: 86.1%
viability, T/C (second compound 0.1 µM, first compound 0.000316 µM): 86.1%
viability, T/C (second compound 0.1 µM, first compound 0.001 µM): 87.5%
viability, T/C [4]: 75.1%
viability, T/C [5]: 64.5%
viability, T/C [6]: 80.5%
viability, T/C [7]: 86%
viability, T/C (second compound 0.316 µM, first compound 0.000316 µM): 75.2%
viability, T/C (second compound 0.316 µM, first compound 0.001 µM): 73.1%
viability, T/C [10]: 73%
viability, T/C [11]: 71.9%
viability, T/C [12]: 77.3%
viability, T/C [13]: 64.2%
viability, T/C (second compound 1 µM, first compound 0.000316 µM): 66.8%
viability, T/C (second compound 1 µM, first compound 0.001 µM): 73%
viability, T/C [16]: 73.1%
viability, T/C [17]: 63.4%
viability, T/C [18]: 67.6%
viability, T/C [19]: 71.4%
